Measured values published in patent US11053233B2, “Solid form of (S)-[2-chloro-4-fluoro-5-(7-morpholin-4-yl-quinazolin-4-yl)phenyl]-(6-methoxy-pyridazin-3-yl)-methanol” (Merck Patent GmbH, priority 2017, dated 2021).
Converted amounts (≈) assume the structure as drawn.

How the values were obtained:
[1] = Solubility measurements in biorelevant media (shake flask 24 h, HPLC); type: physicochemical
Method: Solubility measurements were carried out in accordance with the method described further below.
• Test media: • SGF (Simulated gastric fluid without pepsin) pH 1.2: • 2.0 g sodium chloride were placed in a 1 L volumetric flask and dissolved in around 500 mL water. 80 mL of 1 M hydrochloric acid solution were added and the volume made up to 1 L. • The resulting SGF solution contains: 34.2 mM sodium chloride • FaSSIF (Fasted State Simulated Intestinal Fluid) pH 6.5: • 0.224 g SIF powder (obtained from biorelevant.com) were dissolved in FaSSIF buffer in a 100 mL volumetric flask and made up to volume. The FaSSIF medium was allowed to equilibrate for 2 h at ambient room temperature and used within 48 h of preparation. FaSSIF buffer can be made up by dissolving 0.42 g NaOH pellets, 3.44 g of monobasic sodium phosphate anhydrous and 6.19 g sodium chloride in about 0.9 L of purified water, adjusting the pH to […] with 1 N NaOH or 1 N HCl and making up the volume to 1 L. • The resulting FaSSIF contains: 3 mM sodium taurocholate; 0.75 mM lecithin; 105.9 mM sodium chloride; 28.4 mM monobasic sodium phosphate and 8.7 mM sodium hydroxide. • FeSSIF (Fed State Simulated Intestinal Fluid) pH 5.0: • 1.12 g SIF powder (biorelevant.com) were dissolved in FeSSIF buffer in a 100 mL volumetric flask and made up to volume. It was used within 48 h of preparation. FeSSIF buffer can be made up by dissolving 4.04 g NaOH pellets, 8.65 g of glacial acetic acid and 11.87 g sodium chloride in about 0.9 L of purified water, adjusting the pH to […] with 1 N NaOH or 1 N HCl and making up the volume to 1 L. • The resulting FeSSIF contains: 15 mM sodium taurocholate; 3.75 mM lecithin; 203.2 mM sodium chloride; 101.0 mM sodium hydroxide and 144.1 mM acetic acid. • Solubility Measurements: • Excess amount of substance was weighed into Uniprep® Whatman vials, to which 1 mL of test medium were added. The suspension was shaken for 24 h at 450 rpm (rounds per minute) at 37° C. The pH was measured at 1 h, 6 h and 24 h and the vials were checked for undissolved compound. The pH of the medium was adjusted wherever necessary. After 24 h, the solutions were filtered through 0.2 μm PTFE membrane filter and the filtrates analysed using HPLC after suitable dilutions. • HPLC: • Apparatus: Agilent 1100 • Column: Chromolith® Performance RP-18e100-3 mm, Art. 1.52001 (h) • Wavelength: 282 nm • Injection volume: 5 μL • Column Oven: 37° C. • Auto sampler: 37° C. • Eluent A for HPLC: Formic Acid:Ultrapure water (1:999;v/v) • Eluent B for HPLC: Formic Acid+Acetonitrile (1:999;v/v) • HPLC-Gradient: […]

[2] = Long-term DS (drug substance) stability investigations; type: physicochemical; details: up to 40° C./75% relative humidity
[3] = test system: NCI-H460; details: 150 mg/kg oral plus IR 5 x 2 Gy
Method: (§1) The therapeutic relevance of DNA-PK inhibition by the drug substance as such was investigated in vivo in combination with ionizing radiation (IR), a clinically established DSB-inducing treatment. The drug substance was tested for activity in six xenograft mouse models of human cancer. The models were chosen from different cancer indications (colon, lung, head and neck, pancreatic), and histological subtypes (adeno, squamous, large cell). Ionizing radiation was administered using a fractionated schedule of 2 Gy per day administered over five consecutive days (total radiation dose=10 Gy). […] 10 min prior to each fraction of radiation (ONC397-1-2AZ, ONC397-1-3AZ, ONC397-1-4AZ, ONC397-1-5AZ, ONC397-1-8AZ).
(§2) The radiotherapy enhancing effect was quantified across the tested models by the time to reaching 400% initial volume for the 150 mg/kg study arms. The resulting Kaplan-Meier plots were compared by the log-rank test.

[4] = test system: HCT116; details: 150 mg/kg oral plus IR 5 x 2 Gy
Method: as §1, §2

[5] = test system: A549; details: 150 mg/kg oral plus IR 5 x 2 Gy
Method: as §1, §2

[6] = target: DNA-dependent protein kinase (DNA-PK) (Homo sapiens, UniProt P78527); assay: Inhibition of DNA-PK activity; type: biochemical
[7] = test system: xenograft mouse models of human cancer (colon, lung, head and neck, pancreatic); assay: Combination with ionizing radiation in six xenograft mouse models of human cancer; type: in vivo; details: oral, 10 min prior to each fraction; IR 2 Gy per day over five days (10 Gy); all models
Method: as §1, §2

[8] = test system: DNA-PK autophosphorylation in cancer cell lines

| SMILES | Solubility compared with the anhydrous ordered crystalline compound ([1]; at pH 1.2) | solubility at 24 h ([1]; fasted state simulated intestinal fluid (FaSSIF), pH 6.5, thermodynamic from solid, FaSSIF, pH of medium 6.5, 37 °C) | solubility at 24 h ([1]; fed state simulated intestinal fluid (FeSSIF), pH 5, thermodynamic from solid, FeSSIF, pH of medium 5.0, 37 °C) | Solubility compared with the anhydrous ordered crystalline compound ([1]; general statement) | solubility at 24 h ([1]; simulated gastric fluid without pepsin (SGF), pH 1.2, simulated gastric fluid, thermodynamic from solid, SGF, pH of medium 1.2, 37 °C) | Chemical and physical stability [2] | Enhancement ratio (time to reaching 400% initial volume) [3] | Enhancement ratio (time to reaching 400% initial volume) [4] | Enhancement ratio (time to reaching 400% initial volume) [5] | Inhibition of DNA-PK activity [6] | Enhancement of the radiation effect [7] | Inhibition of DNA-PK autophosphorylation [8] |
| --- | --- | --- | --- | --- | --- | --- | --- | --- | --- | --- | --- | --- |
| COc1ccc([C@@H](O)c2cc(-c3ncnc4cc(N5CCOCC5)ccc34)c(F)cc2Cl)nn1 [anhydrous disordered crystalline form, (S)-[2-chloro-4-fluoro-5-(7-morpholin-4-yl-quinazolin-4-yl)phenyl]-(6-methoxy-pyridazin-3-yl)-methanol] | more than double the solubility of the crystalline form | 10 ± 1 µg/mL (≈ 20.8 µM) | 56 ± 2 µg/mL (≈ 116 µM) | significantly better | 2020 ± 67 µg/mL (≈ 4200 µM) | high chemical and physical stability | – | – | – | – | – | – |
| COc1ccc([C@@H](O)c2cc(-c3ncnc4cc(N5CCOCC5)ccc34)c(F)cc2Cl)nn1 [drug substance, (S)-[2-chloro-4-fluoro-5-(7-morpholin-4-yl-quinazolin-4-yl)phenyl]-(6-methoxy-pyridazin-3-yl)-methanol] | – | – | – | – | – | – | 2.6 | 1.5 | 1.5 | potent and selective inhibitor | strong enhancement of the radiation effect | potent inhibition |
